Activity calls are given as the source filed them. The rule behind the calls is not given here.

This data set deals with CCRIS mutagenicity, Ames/micronucleus/aberration tests. Kind of data set: CCRIS mutagenicity studies.
Setting [1] is: Test System: AMES SALMONELLA TYPHIMURIUM, Strain/Indicator: TA98, Metabolic Activation: NONE, Method: STANDARD PLATE.
The mark [2] stands for this setting: Test System: AMES SALMONELLA TYPHIMURIUM, Strain/Indicator: TA100, Metabolic Activation: NONE, Method: STANDARD PLATE.
The mark [3] stands for this setting: Test System: AMES SALMONELLA TYPHIMURIUM, Strain/Indicator: TA1537, Metabolic Activation: NONE, Method: STANDARD PLATE.

For `Cn1c(CC(=O)OCCCl)c(C(=O)O)c2ccccc21`, the mutagenic call is “inactive; negative” (Test System: AMES SALMONELLA TYPHIMURIUM, Strain/Indicator: TA97, Metabolic Activation: NONE, Method: STANDARD PLATE); “inactive; negative” (Test System: AMES SALMONELLA TYPHIMURIUM, Strain/Indicator: TA97, Metabolic Activation: RAT, LIVER, S-9, AROCLOR 1254 (4%, 10%), Method: STANDARD PLATE); “active; positive” under setting [1]; “inactive; negative” (Test System: AMES SALMONELLA TYPHIMURIUM, Strain/Indicator: TA98, Metabolic Activation: RAT, LIVER, S-9, AROCLOR 1254 (4%, 10%), Method: STANDARD PLATE); “inactive; negative” under setting [2]; “inactive; negative” (Test System: AMES SALMONELLA TYPHIMURIUM, Strain/Indicator: TA100, Metabolic Activation: RAT, LIVER, S-9, AROCLOR 1254 (4%, 10%), Method: STANDARD PLATE). The mutagenic call (Test System: AMES SALMONELLA TYPHIMURIUM, Strain/Indicator: TA102, Metabolic Activation: NONE, Method: STANDARD PLATE) was “inactive; negative” and the mutagenic call (Test System: AMES SALMONELLA TYPHIMURIUM, Strain/Indicator: TA102, Metabolic Activation: RAT, LIVER, S-9, AROCLOR 1254 (4%, 10%), Method: STANDARD PLATE) is “inactive; negative”.

On to `Cc1c2ccccc2c(CCl)c2ccc3ccccc3c12`, for which the mutagenic call by setting is: under setting [2], “active; positive”; under setting [3], “active; positive”.

In the case of `C1CCC(NC2CCCCC2)CC1`, the mutagenic call is “inactive; negative” (Test System: AMES SALMONELLA TYPHIMURIUM, Strain/Indicator: TA97, Metabolic Activation: HAMSTER, LIVER, S-9, AROCLOR 1254 (10%), Method: PREINCUBATION); “inactive; negative” (Test System: AMES SALMONELLA TYPHIMURIUM, Strain/Indicator: TA97, Metabolic Activation: NONE, Method: PREINCUBATION); “inactive; negative” (Test System: AMES SALMONELLA TYPHIMURIUM, Strain/Indicator: TA97, Metabolic Activation: RAT, LIVER, S-9, AROCLOR 1254 (10%), Method: PREINCUBATION); “inactive; negative” (Test System: AMES SALMONELLA TYPHIMURIUM, Strain/Indicator: TA98, Metabolic Activation: HAMSTER, LIVER, S-9, AROCLOR 1254 (10%), Method: PREINCUBATION); “inactive; negative” (Test System: AMES SALMONELLA TYPHIMURIUM, Strain/Indicator: TA98, Metabolic Activation: NONE, Method: PREINCUBATION); “inactive; negative” (Test System: AMES SALMONELLA TYPHIMURIUM, Strain/Indicator: TA98, Metabolic Activation: RAT LIVER S-9, PHENOBARBITAL AND BETA-NAPHTHOFLAVONE, Method: PREINCUBATION). The mutagenic call is, setting by setting: (Test System: AMES SALMONELLA TYPHIMURIUM, Strain/Indicator: TA98, Metabolic Activation: RAT, LIVER, S-9, AROCLOR 1254 (10%), Method: PREINCUBATION) “inactive; negative”; (Test System: AMES SALMONELLA TYPHIMURIUM, Strain/Indicator: TA100, Metabolic Activation: NONE, Method: PREINCUBATION) “inactive; negative”; (Test System: AMES SALMONELLA TYPHIMURIUM, Strain/Indicator: TA100, Metabolic Activation: RAT LIVER S-9, PHENOBARBITAL AND BETA-NAPHTHOFLAVONE, Method: PREINCUBATION) “inactive; negative”; (Test System: AMES SALMONELLA TYPHIMURIUM, Strain/Indicator: TA100, Metabolic Activation: RAT, LIVER, S-9, AROCLOR 1254 (10%), Method: PREINCUBATION) “inactive; negative”; (Test System: AMES SALMONELLA TYPHIMURIUM, Strain/Indicator: TA1535, Metabolic Activation: RAT LIVER S-9, PHENOBARBITAL AND BETA-NAPHTHOFLAVONE, Method: PREINCUBATION) “inactive; negative”; (Test System: AMES SALMONELLA TYPHIMURIUM, Strain/Indicator: TA1537, Metabolic Activation: HAMSTER, LIVER, S-9, AROCLOR 1254 (10%), Method: PREINCUBATION) “inactive; negative”. The mutagenic call is, setting by setting: (Test System: AMES SALMONELLA TYPHIMURIUM, Strain/Indicator: TA1537, Metabolic Activation: NONE, Method: PREINCUBATION) “inactive; negative”; (Test System: AMES SALMONELLA TYPHIMURIUM, Strain/Indicator: TA1537, Metabolic Activation: RAT LIVER S-9, PHENOBARBITAL AND BETA-NAPHTHOFLAVONE, Method: PREINCUBATION) “inactive; negative”; (Test System: AMES SALMONELLA TYPHIMURIUM, Strain/Indicator: TA1537, Metabolic Activation: RAT, LIVER, S-9, AROCLOR 1254 (10%), Method: PREINCUBATION) “inactive; negative”; (Test System: E.COLI, Strain/Indicator: WP2UVRA/PKM101, Metabolic Activation: NONE, Method: PREINCUBATION) “inactive; negative”; (Test System: E.COLI, Strain/Indicator: WP2UVRA/PKM101, Metabolic Activation: RAT LIVER S-9, PHENOBARBITAL AND BETA-NAPHTHOFLAVONE, Method: PREINCUBATION) “inactive; negative”.

For the molecule `C#CC(OC(=O)C1C(C=C(C)C)C1(C)C)/C(C)=C/CC` (stereo not given), the mutagenic call runs as follows: (Test System: AMES SALMONELLA TYPHIMURIUM, Strain/Indicator: TA98, Metabolic Activation: NONE, Method: MICROSUSPENSION) “inactive; negative”; (Test System: AMES SALMONELLA TYPHIMURIUM, Strain/Indicator: TA98, Metabolic Activation: S-9, Method: MICROSUSPENSION) “inactive; negative”; (Test System: AMES SALMONELLA TYPHIMURIUM, Strain/Indicator: TA100, Metabolic Activation: NONE, Method: MICROSUSPENSION) “inactive; negative”; (Test System: AMES SALMONELLA TYPHIMURIUM, Strain/Indicator: TA100, Metabolic Activation: S-9, Method: MICROSUSPENSION) “inactive; negative”.

As for `N#C[Se]Cc1ccccc1`, the mutagenic call runs as follows: (Test System: AMES SALMONELLA TYPHIMURIUM, Strain/Indicator: TA97A, Metabolic Activation: NONE, Method: STANDARD PLATE) “inactive; negative”; under setting [2], “active; positive”.

For the molecule `CCCCCCCCCCCCCc1ccccc1`, the mutagenic call reads like this: under setting [1], “inactive; negative”; (Test System: AMES SALMONELLA TYPHIMURIUM, Strain/Indicator: TA98, Metabolic Activation: RAT, LIVER, S-9, AROCLOR 1254 (10%), Method: STANDARD PLATE) “inactive; negative”; under setting [2], “inactive; negative”; (Test System: AMES SALMONELLA TYPHIMURIUM, Strain/Indicator: TA100, Metabolic Activation: RAT, LIVER, S-9, AROCLOR 1254 (10%), Method: STANDARD PLATE) “inactive; negative”; (Test System: AMES SALMONELLA TYPHIMURIUM, Strain/Indicator: TA1535, Metabolic Activation: NONE, Method: STANDARD PLATE) “inactive; negative”; (Test System: AMES SALMONELLA TYPHIMURIUM, Strain/Indicator: TA1535, Metabolic Activation: RAT, LIVER, S-9, AROCLOR 1254 (10%), Method: STANDARD PLATE) “inactive; negative”. For the same molecule, the mutagenic call under setting [3] was “inactive; negative”; the mutagenic call (Test System: AMES SALMONELLA TYPHIMURIUM, Strain/Indicator: TA1537, Metabolic Activation: RAT, LIVER, S-9, AROCLOR 1254 (10%), Method: STANDARD PLATE) is “inactive; negative”; the mutagenic call (Test System: CHINESE HAMSTER OVARY, Strain/Indicator: CHO (HGPRT), Metabolic Activation: NONE) was “inactive; negative”; the mutagenic call (Test System: CHINESE HAMSTER OVARY, Strain/Indicator: CHO (HGPRT), Metabolic Activation: RAT, LIVER, S-9, AROCLOR 1254 (1%)) was “inactive; negative”.

On to `COc1cc2c(c3oc4cccc(OC(C)=O)c4c(=O)c13)C1C=COC1O2` (stereo not given), for which the mutagenic call was “inactive; negative” (Test System: AMES SALMONELLA TYPHIMURIUM, Strain/Indicator: TA98, Metabolic Activation: RAT, LIVER, S-9, PHENOBARBITAL, Method: STANDARD PLATE) and “active; positive” (Test System: AMES SALMONELLA TYPHIMURIUM, Strain/Indicator: TA100, Metabolic Activation: RAT, LIVER, S-9, PHENOBARBITAL, Method: STANDARD PLATE).

Source of the values: PubChem BioAssay AID1259407 (Chemical Carcinogenesis Research Information System (CCRIS), 2018).
